Earlier results as cited in patent US20080286341A1, “Buffered coated nicotine containing products” (priority 2007, published 2008).

Columns and labels:
[1] = smoking a cigarette
[2] = from Handbook of Chemistry and Physics, 85th edition

SMILES: CN1CCCC1c1cccnc1 (centres unmarked) [nicotine, 3-(1-methyl-2-pyrrolidinyl)-pyridine]
- time to reach the brain after inhalation [1]: ten

SMILES: NC(=O)C[C@H](N)C(=O)O [Aspargine]
- pKa value (in interval 8.0-9.6) [2]: 8.73
